Experimental data reported in patent US20240101546A1, “HETEROARYL-ACETYLENES, PHARMACEUTICAL COMPOSITIONS THEREOF, AND THEIR THERAPEUTIC APPLICATIONS” (Eubulus Biotherapeutics Inc., priority 2020, published 2024).

tested on: lung cancer cell line NCI-H82; experiment: Cell proliferation assay, NCI-H82 (CELL-TITER GLO); type: cell-based; conditions: Homo sapiens, NCI-H82, 72 h, NCI-H82 cells, 72 h incubation, cell viability by CELL-TITER GLO, top concentration 1 μM; read-out: EC50, Inhibition of NCl-H82 Cell Proliferation
In short: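 NCI-H82 cells, 1,000 per well in RPMI1640, were treated after overnight plating with a 3-fold dilution series from 1 μM. Viability read by CellTiter-Glo luminescence after 72 h. EC50 derived from the curves.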

Row | EC50 | SMILES
1 | ≤ 200 nM | C#Cc1nc(NC(=O)N[C@@H](CO)c2ccc(N3CCCCCC3)cc2)cs1 [Compound A137, (R)-1-(1-(4-(Azepan-1-yl)phenyl)-2-hydroxyethyl)-3-(2-ethynylthiazol-4-yl)urea]
2 | ≤ 200 nM | C#Cc1nc(NC(=O)N[C@@H](CO)c2ccc(N3CCCCCC3=O)cc2)cs1 [Compound A138, (R)-1-(2-Ethynylthiazol-4-yl)-3-(2-hydroxy-1-(4-(2-oxoazepan-1-yl)phenyl)-ethyl)urea]
3 | ≤ 200 nM | C#Cc1nc(NC(=O)N[C@@H](CO)c2ccc(N3CCCc4c3cnn4C)cc2)cs1 [Compound A139, (R)-1-(2-Ethynylthiazol-4-yl)-3-(2-hydroxy-1-(4-(1-methyl-1,5,6,7-tetrahydro-4H-pyrazolo[4,3-b]pyridin-4-yl)phenyl)ethyl)urea]
4 | ≤ 200 nM | C#Cc1nc(NC(=O)N[C@@H](CO)c2ccc(N3CCCc4nn(C)cc43)cc2)cs1 [Compound A140, (R)-1-(2-Ethynylthiazol-4-yl)-3-(2-hydroxy-1-(4-(2-methyl-2,5,6,7-tetrahydro-4H-pyrazolo[4,3-b]pyridin-4-yl)phenyl)ethyl)urea]
5 | ≤ 200 nM | C#Cc1nc(NC(=O)N[C@@H](CO)c2ccc(C3=C(C#N)CCCC3)cc2)cs1 [Compound A141, (R)-1-(1-(6′-Cyano-2′,3′,4′,5′-tetrahydro-[1,1′-biphenyl]-4-yl)-2-hydroxyethyl)-3-(2-ethynylthiazol-4-yl)urea]
6 | ≤ 200 nM | C#Cc1nc(NC(=O)N[C@@H](CO)c2ccc(C3=C(C#N)CCCC3)cn2)cs1 [Compound A142, (R)-1-(1-(5-(2-Cyanocyclohex-1-en-1-yl)pyridin-2-yl)-2-hydroxyethyl)-3-(2-ethynylthiazol-4-yl)urea]
7 | ≤ 200 nM | C#Cc1nc(NC(=O)N[C@@H](CO)c2ccc(C3CCCCN3C(C)=O)cc2)cs1 (stereo partly drawn) [Compound A143, 1-((1R)-1-(4-(1-Acetylpiperidin-2-yl)phenyl)-2-hydroxyethyl)-3-(2-ethynyl-thiazol-4-yl)urea]
8 | 200 to 1000 nM | C#Cc1nc(NC(=O)N[C@H](CO)C(=O)N2CC(c3ccccc3C#N)C2)cs1 [Compound A144, (R)-1-(1-(3-(2-Cyanophenyl)azetidin-1-yl)-3-hydroxy-1-oxopropan-2-yl)-3-(2-ethynylthiazol-4-yl)urea]
9 | 200 to 1000 nM | C#Cc1nc(NC(=O)N[C@@H](CO)C(=O)N2CC(c3ccccc3C#N)C2)cs1 [Compound A145, (S)-1-(1-(3-(2-Cyanophenyl)azetidin-1-yl)-3-hydroxy-1-oxopropan-2-yl)-3-(2-ethynylthiazol-4-yl)urea]
10 | 200 to 1000 nM | C#Cc1nc(NC(=O)N[C@H](CO)C(=O)N2CCC(c3ccccc3C#N)CC2)cs1 [Compound A146, (R)-1-(1-(4-(2-Cyanophenyl)piperidin-1-yl)-3-hydroxy-1-oxopropan-2-yl)-3-(2-ethynylthiazol-4-yl)urea]
11 | 200 to 1000 nM | C#Cc1nc(NC(=O)N[C@@H](CO)C(=O)N2CCC(c3ccccc3C#N)CC2)cs1 [Compound A147, (S)-1-(1-(4-(2-Cyanophenyl)piperidin-1-yl)-3-hydroxy-1-oxopropan-2-yl)-3-(2-ethynylthiazol-4-yl)urea]
12 | ≤ 200 nM | C#Cc1nc(NC(=O)N[C@H](CO)C(=O)N2CCN(c3ccccc3C#N)CC2)cs1 [Compound A148, (R)-1-(1-(4-(2-Cyanophenyl)piperazin-1-yl)-3-hydroxy-1-oxopropan-2-yl)-3-(2-ethynylthiazol-4-yl)urea]
13 | ≤ 200 nM | C#Cc1nc(NC(=O)N[C@@H](CO)C(=O)N2CCN(c3ccccc3C#N)CC2)cs1 [Compound A149, (S)-1-(1-(4-(2-Cyanophenyl)piperazin-1-yl)-3-hydroxy-1-oxopropan-2-yl)-3-(2-ethynylthiazol-4-yl)urea]
14 | ≤ 200 nM | C#Cc1nc(NC(=O)N[C@@H](CO)C2CCN(c3ccccc3C#N)CC2)cs1 [Compound A150, (R)-1-(1-(1-(2-Cyanophenyl)piperidin-4-yl)-2-hydroxyethyl)-3-(2-ethynylthiazol-4-yl)urea]
15 | ≤ 200 nM | C#Cc1nc(NC(=O)N[C@H](CO)C2CCN(c3ccccc3C#N)CC2)cs1 [Compound A151, (S)-1-(1-(1-(2-Cyanophenyl)piperidin-4-yl)-2-hydroxyethyl)-3-(2-ethynylthiazol-4-yl)urea]
16 | ≤ 200 nM | C#Cc1nc(NC(=O)N[C@@H](CO)C(=O)N2CCC3(CC2)CC3)cs1 [Compound A152, (S)-1-(2-Ethynylthiazol-4-yl)-3-(3-hydroxy-1-oxo-1-(6-azaspiro[2.5]octan-6-yl)propan-2-yl)urea]
17 | ≤ 200 nM | C#Cc1nc(NC(=O)N[C@@H](CO)C(=O)N2CCC3(CCC3)CC2)cs1 [Compound A153, (S)-1-(2-Ethynylthiazol-4-yl)-3-(3-hydroxy-1-oxo-1-(7-azaspiro[3.5]nonan-7-yl)propan-2-yl)urea]
18 | ≤ 200 nM | C#Cc1nc(NC(=O)N[C@@H](CO)C(=O)N2CCC3(CCCC3)CC2)cs1 [Compound A154, (S)-1-(2-Ethynylthiazol-4-yl)-3-(3-hydroxy-1-oxo-1-(8-azaspiro[4.5]decan-8-yl)propan-2-yl)urea]

Row | EC50 | SMILES
19 | ≤ 200 nM | C#Cc1nc(NC(=O)N[C@H](CO)C(=O)N2CCC3(CCCC3)CC2)cs1 [Compound A155, (R)-1-(2-Ethynylthiazol-4-yl)-3-(3-hydroxy-1-oxo-1-(8-azaspiro[4.5]decan-8-yl)propan-2-yl)urea]
20 | ≤ 200 nM | C#Cc1ncc(NC(=O)N[C@@H](CO)C(=O)N2CCC3(CCCC3=O)CC2)s1 [Compound A156, (S)-1-(2-Ethynylthiazol-5-yl)-3-(3-hydroxy-1-oxo-1-(1-oxo-8-azaspiro[4.5]decan-8-yl)propan-2-yl)urea]
21 | ≤ 200 nM | C#Cc1nc(NC(=O)N[C@@H](CO)C(=O)N2CCC3(CCCCC3)CC2)cs1 [Compound A157, (S)-1-(2-Ethynylthiazol-4-yl)-3-(3-hydroxy-1-oxo-1-(3-azaspiro[5.5]undecan-3-yl)propan-2-yl)urea]
22 | ≤ 200 nM | C#Cc1nc(NC(=O)N[C@@H](CO)C(=O)N2CCC3(CC2)CCC(F)(F)CC3)cs1 [Compound A158, (S)-1-(1-(9,9-Difluoro-3-azaspiro[5.5]undecan-3-yl)-3-hydroxy-1-oxopropan-2-yl)-3-(2-ethynylthiazol-4-yl)urea]
23 | > 5000 nM | C#Cc1nc(NC(=O)N[C@@H](CO)C(=O)N2CCC(N3CC(F)(F)C3)CC2)cs1 [Compound A159, (S)-1-(1-(4-(3,3-Difluoroazetidin-1-yl)piperidin-1-yl)-3-hydroxy-1-oxopropan-2-yl)-3-(2-ethynylthiazol-4-yl)urea]
24 | 200 to 1000 nM | C#Cc1nc(NC(=O)N[C@H](CO)C(=O)N2CCC(N3CC(F)(F)C3)CC2)cs1 [Compound A160, (R)-1-(1-(4-(3,3-Difluoroazetidin-1-yl)piperidin-1-yl)-3-hydroxy-1-oxopropan-2-yl)-3-(2-ethynylthiazol-4-yl)urea]
25 | ≤ 200 nM | C#Cc1nc(NC(=O)N[C@@H](CO)C(=O)N2CCC(F)(F)CC2)cs1 [Compound A161, (S)-1-(1-(4,4-Difluoropiperidin-1-yl)-3-hydroxy-1-oxopropan-2-yl)-3-(2-ethynyl-thiazol-4-yl)urea]
26 | ≤ 200 nM | C#Cc1nc(NC(=O)Nc2ncnc3c(F)c(-c4c(F)cccc4OC)c(Cl)cc23)cs1 [Compound A162, 1-(6-Chloro-8-fluoro-7-(2-fluoro-6-methoxyphenyl)quinazolin-4-yl)-3-(2-ethynylthiazol-4-yl)urea]
27 | ≤ 200 nM | C#Cc1nc(NC(=O)Nc2ncnc3cc(-c4c(O)cccc4F)ccc23)cs1 [Compound A163, 1-(2-Ethynylthiazol-4-yl)-3-(7-(2-fluoro-6-hydroxyphenyl)quinazolin-4-yl)urea]
28 | ≤ 200 nM | C#Cc1nc(NC(=O)Nc2ncnc3c(F)c(-c4cccc5ncsc45)c(Cl)cc23)cs1 [Compound A165, 1-(7-(Benzo[d]thiazol-7-yl)-6-chloro-8-fluoroquinazolin-4-yl)-3-(2-ethynyl-thiazol-4-yl)urea]
29 | ≤ 200 nM | C#Cc1nc(NC(=O)Nc2ncnc3cc(-c4cccnc4C4(C#N)CC4)ccc23)cs1 [Compound A166, 1-(7-(2-(1-Cyanocyclopropyl)pyridin-3-yl)quinazolin-4-yl)-3-(2-ethynylthiazol-4-yl)urea]
30 | ≤ 200 nM | C#Cc1nc(NC(=O)NCc2ccc(-c3cccc(C4(C#N)CC4)c3)cc2)cs1 [Compound A167, 1-((3′-(1-Cyanocyclopropyl)-[1,1′-biphenyl]-4-yl)methyl)-3-(2-ethynylthiazol-4-yl)urea]
31 | ≤ 200 nM | C#Cc1nc(NC(=O)NCc2ccc(-c3cccc(C4(O)CC4)c3)cc2)cs1 [Compound A168, 1-(2-Ethynylthiazol-4-yl)-3-((3′-(1-hydroxycyclopropyl)-[1,1′-biphenyl]-4-yl)methyl)urea]
32 | ≤ 200 nM | C#Cc1nc(NC(=O)NCc2ccc(-c3cccc(C(=O)CC)c3)cc2)cs1 [Compound A169, 1-(2-Ethynylthiazol-4-yl)-3-((3′-propionyl-[1,1′-biphenyl]-4-yl)methyl)urea]
33 | ≤ 200 nM | C#Cc1nc(NC(=O)NCc2ccc(-c3cccc(C4(O)CCC4)c3)cc2)cs1 [Compound A170, 1-(2-Ethynylthiazol-4-yl)-3-((3′-(1-hydroxycyclobutyl)-[1,1′-biphenyl]-4-yl)-methyl)urea]
34 | ≤ 200 nM | C#Cc1nc(NC(=O)NCc2ccc(-c3cccc4nc(N5CC(F)(F)C5)nc(O)c34)cc2)cs1 [Compound A171, 1-(4-(2-(3,3-Difluoroazetidin-1-yl)-4-hydroxyquinazolin-5-yl)benzyl)-3-(2-ethynylthiazol-4-yl)urea]
35 | ≤ 200 nM | C#Cc1nc(NC(=O)NCc2ccc(-c3cccc4nc(OCCO)nc(O)c34)cc2)cs1 [Compound A172, 1-(2-Ethynylthiazol-4-yl)-3-(4-(4-hydroxy-2-(2-hydroxyethoxy)quinazolin-5-yl)-benzyl)urea]
36 | 200 to 1000 nM | C#Cc1nc(NC(=O)NCc2ccc(-c3cc(N4CCCC4)ccn3)cc2)cs1 [Compound A173, 1-(2-Ethynylthiazol-4-yl)-3-(4-(4-(pyrrolidin-1-yl)pyridin-2-yl)benzyl)urea]
